EC50 and CC50 data for nine compounds are collected here from ChEMBL document CHEMBL1151585, “Aryl phosphate derivates of AZT inhibit HIV replication in cells where the nucleoside is poorly active” (Bioorg Med Chem Lett, 1992).

The test system of one data set is JM1. Kind of data set: Effective dose of compound that decreases antigen production in HIV-1 infected JM cells to 50% of control. The data set is classed as functional. To be noted: Homo sapiens, read-out: ED50 (the source's name).
A short description of data set [1]: Toxic dose of compound which causes 50% cytotoxicity towards HIV-1 uninfected JM cells. It counts as toxicity, cell-based, JM1. To be noted: human, read-out: TD50 (the source's name).

Consider `COC(=O)C(C)NP(=O)(OCC1OC(n2cc(C)c(=O)[nH]c2=O)CC1N=[N+]=[N-])Oc1ccc([N+](=O)[O-])cc1` (stereo not drawn), for which the EC50 in the data set on JM1 stood at 40 µM. Moreover, the CC50 in data set [1] amounted to 300 µM.
On the same counts, the results for `COC(=O)C(CC(C)C)NP(=O)(OCC1OC(n2cc(C)c(=O)[nH]c2=O)CC1N=[N+]=[N-])Oc1ccccc1` (stereo not drawn) are 8 µM and 80 µM.
For the compound `COC(=O)[C@H](C)NP(=O)(OC[C@H]1O[C@@H](n2cc(C)c(=O)[nH]c2=O)C[C@@H]1N=[N+]=[N-])Oc1ccccc1` (stereo partly drawn), the EC50 in the data set with JM1 came out at 0.8 µM. Besides, the CC50 in data set [1] is 500 µM.
Regarding `CCc1ccc(OP(=O)(NC(C)C(=O)OC)OCC2OC(n3cc(C)c(=O)[nH]c3=O)CC2N=[N+]=[N-])cc1` (stereo not drawn), in the data set on JM1, the EC50 worked out at 0.4 µM. The CC50 in data set [1] stood at 40 µM.
On the same counts, the results for `COC(=O)C(C)NP(=O)(OCC1OC(n2cc(C)c(=O)[nH]c2=O)CC1N=[N+]=[N-])Oc1ccc(F)cc1` (stereo not drawn) are 0.32 µM and above 200 µM.
On to `COC(=O)C(C)NP(=O)(OCC1OC(n2cc(C)c(=O)[nH]c2=O)CC1N=[N+]=[N-])Oc1ccc(OC)cc1` (stereo not drawn), for which, in the data set with JM1, the EC50 turned out to be 0.8 µM. Besides, the CC50 in data set [1] was determined as 100 µM.
On the same counts, the results for `COC(=O)C(Cc1ccccc1)NP(=O)(OCC1OC(n2cc(C)c(=O)[nH]c2=O)CC1N=[N+]=[N-])Oc1ccccc1` (stereo not drawn) are 1.6 µM and 100 µM.
The corresponding values for `COC(=O)CNP(=O)(OCC1OC(n2cc(C)c(=O)[nH]c2=O)CC1N=[N+]=[N-])Oc1ccccc1` (stereo not drawn) are 100 µM and 1000 µM.
On the same counts, the results for `Cc1cn([C@H]2C[C@H](N=[N+]=[N-])[C@@H](CO)O2)c(=O)[nH]c1=O` [ZIDOVUDINE] are 100 µM and above 1000 µM.
